# Test results: patent US6461997B1, “Triazole sulfones having herbicidal activity” (Monsanto Technology LLC, priority 1999, dated 2002)
# Key:
# POLCO (wild buckwheat) [1] = assay: Pre-emergence herbicidal activity, cool season; assay type: in vivo, Polygonum convolvulus; details: lowest tested rate with 80% or greater inhibition; rates 300, 100, 30, 10 g/ha; about 14 days
# Outline: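 GR80 values, pre-emergence, soil applied at 300, 100, 30, 10 g/ha. Warm regime 30/21 °C: PANMI, DIGSA. Cool regime 18/13 °C: ALOMY, POLCO. Rating ~14 d, % inhibition vs untreated.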
# SASKR (russian thistle) = assay: Pre-emergence herbicidal activity, cool season; assay type: in vivo, Salsola kali; details: lowest tested rate with 80% or greater inhibition; rates 300, 100, 30, 10 g/ha; about 14 days
# Outline: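 GR80 values derive from percent inhibition relative to untreated plants, read roughly 14 days after sowing and pre-emergence soil-surface treatment (compound in 50:50 acetone/water; rates typically 10, 30, 100, 300 g/ha). Warm-season weeds grew at 30/21° C day/night, cool-season ones at 18/13° C; an asterisk marks activity without reaching 80% at the highest rate.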
# AMARE (redroot pigweed) = assay: Pre-plant incorporated (PPI) herbicidal activity, warm season; assay type: in vivo, Amaranthus retroflexus
# Procedure: (§1) In another set of tests, the pre-plant incorporated (PPI) activity of compounds of this invention was evaluated on the same species as for the pre-emergence tests described above. In the PPI tests the following procedure, designed to simulate PPI application, was used.
# (§2) A pre-prepared topsoil mixture (described above) was placed in a pot and compacted to a depth of 1.0 to 1.25 cm from the top of the pot. Seeds of each of several monocotyledonous and dicotyledonous annual plant species were placed on top of the soil. A sufficient quantity of soil to cover the seeds and level fill the pot was weighed into an open container. A known amount of the test compound was dissolved or suspended in an organic solvent and applied by spraying to this cover soil. The cover soil was thoroughly mixed to distribute the test compound throughout the cover soil, and was then applied as a cover layer over the seeds. Untreated soil was used as a cover layer for control pots. After treatment the plants were placed in a greenhouse where they received 0.64 cm of overhead irrigation. All subsequent watering consisted of a light overhead mist and/or subirrigation as needed for germination and growth. Tables 9 and 10 below relate to warm season plant species which were placed after pre-emergence treatment in a greenhouse with a 30/21° C. day/night temperature regime. Tables 11 and 12 below relates to cool season plant species placed after pre-emergence treatment in a greenhouse or growth chamber with an 18/13° C. day/night temperature regime. Only the compounds of Examples 1, 6, 8, 11, 13 and 15-20 were included in PPI tests.
# (§3) Approximately 14 days after planting and treating, the plants were observed and herbicidal efficacy recorded as percent inhibition by comparison with untreated plants.
# ECHCG (barnyardgrass) = assay: as above; assay type: in vivo, Echinochloa crus-galli
# Procedure: as §1, §2, §3
# PANDI (fall panicum) = assay: as above; assay type: in vivo, Panicum dichotomiflorum; details: for Percent inhibition PANDI: PPI application
# Procedure: as §1, §2, §3
# POLCO (wild buckwheat) [2] = assay: Pre-plant incorporated (PPI) herbicidal activity, cool season; assay type: in vivo, Polygonum convolvulus; details: for Percent inhibition POLCO: weed, PPI application
# Procedure: as §1, §2, §3
# ALOMY (blackgrass) = assay: as above; assay type: in vivo, Alopecurus myosuroides; details: for Percent inhibition ALOMY: weed, PPI application
# Procedure: as §1, §2, §3
# XANST (cocklebur) = assay: Pre-plant incorporated (PPI) herbicidal activity, warm season; assay type: in vivo, Xanthium strumarium; details: PPI application
# Procedure: as §1, §2, §3
# wheat (TRZAW) = assay: Selectivity test, PPI, cool season crop; assay type: in vivo, Triticum aestivum; details: PPI application
# Procedure: as §2, §3
# (§4) Additional pre-emergence and PPI tests were conducted by the procedures described above, on warm and cool season weed species in the presence of crop species, to assess herbicidal selectivity. Crop species included in warm season tests were corn (Zea mays, ZEAMX), rice (Oryza sativa, ORYSA) and soybean (Glycine max, GLYMX). Crop species included in cool season tests were wheat (Triticum aestivum, TRZAW), barley (Hordeunm vulgare, HORVX) and oilseed rape (Brassica napus, BRSNS).
# (§5) Tables 15 and 16 relate to pre-emergence and PPI tests respectively on warm season species. Table 17 relates to pre-emergence tests on cool season species.
# oilseed rape (BRSNS) = assay: Selectivity test, PPI, cool season crop; assay type: in vivo, Brassica napus; details: PPI application
# Procedure: as §2, §3, §4, §5
# [3] = test system: VERPE (creeping speedwell); assay: Pre-plant incorporated (PPI) herbicidal activity, cool season; assay type: in vivo, Veronica persicaria; details: pre-plant incorporated; lowest tested rate with 80% or greater inhibition; about 14 days
# Procedure: as §1, §2, §3
# [4] = pre-plant incorporated, lowest tested rate with 80% or greater inhibition, about 14 days
smiles,measurement,setting,value
CCN(CC)C(=O)n1cnc(S(=O)(=O)C(F)(F)C(F)(F)Br)n1 [Example 4],"Pre-emergence activity GR80, POLCO",POLCO (wild buckwheat) [1],300 g/ha
same,"Pre-emergence activity GR80, SASKR",SASKR (russian thistle),30 g/ha
same,Percent inhibition AMARE,"AMARE (redroot pigweed); PPI application, 30 g/ha",70%
same,Percent inhibition AMARE,"AMARE (redroot pigweed); PPI application, 100 g/ha",100%
same,Percent inhibition AMARE,"AMARE (redroot pigweed); PPI application, 300 g/ha",100%
same,Percent inhibition AMARE,"AMARE (redroot pigweed); PPI application, 900 g/ha",100%
same,Percent inhibition ECHCG,"ECHCG (barnyardgrass); PPI application, 30 g/ha",20%
same,Percent inhibition ECHCG,"ECHCG (barnyardgrass); PPI application, 100 g/ha",100%
same,Percent inhibition ECHCG,"ECHCG (barnyardgrass); PPI application, 300 g/ha",100%
same,Percent inhibition ECHCG,"ECHCG (barnyardgrass); PPI application, 900 g/ha",100%
same,Percent inhibition PANDI,PANDI (fall panicum); 30 g/ha,0%
same,Percent inhibition PANDI,PANDI (fall panicum); 100 g/ha,100%
same,Percent inhibition PANDI,PANDI (fall panicum); 300 g/ha,100%
same,Percent inhibition PANDI,PANDI (fall panicum); 900 g/ha,100%
same,Percent inhibition POLCO,POLCO (wild buckwheat) [2]; 30 g/ha,0%
same,Percent inhibition POLCO,POLCO (wild buckwheat) [2]; 100 g/ha,60%
same,Percent inhibition POLCO,POLCO (wild buckwheat) [2]; 300 g/ha,90%
same,Percent inhibition POLCO,POLCO (wild buckwheat) [2]; 900 g/ha,100%
same,Percent inhibition ALOMY,ALOMY (blackgrass); 30 g/ha,70%
same,Percent inhibition ALOMY,ALOMY (blackgrass); 100 g/ha,95%
same,Percent inhibition ALOMY,ALOMY (blackgrass); 300 g/ha,100%
same,Percent inhibition ALOMY,ALOMY (blackgrass); 900 g/ha,100%
same,Percent inhibition XANST,XANST (cocklebur); 30 g/ha,0%
same,Percent inhibition XANST,XANST (cocklebur); 100 g/ha,0%
same,Percent inhibition XANST,XANST (cocklebur); 300 g/ha,0%
same,Percent inhibition XANST,XANST (cocklebur); 900 g/ha,40%
same,Percent inhibition TRZAW,wheat (TRZAW); 30 g/ha,0%
same,Percent inhibition TRZAW,wheat (TRZAW); 100 g/ha,10%
same,Percent inhibition TRZAW,wheat (TRZAW); 300 g/ha,30%
same,Percent inhibition TRZAW,wheat (TRZAW); 900 g/ha,45%
same,Percent inhibition BRSNS,oilseed rape (BRSNS); 30 g/ha,80%
same,Percent inhibition BRSNS,oilseed rape (BRSNS); 100 g/ha,100%
same,Percent inhibition BRSNS,oilseed rape (BRSNS); 300 g/ha,100%
same,Percent inhibition BRSNS,oilseed rape (BRSNS); 900 g/ha,100%
CCN(CC)C(=O)n1cnc(S(=O)(=O)C(F)(F)F)n1 [Example 2],"Pre-emergence activity GR80, POLCO",POLCO (wild buckwheat) [1],[empty]
same,"Pre-emergence activity GR80, SASKR",SASKR (russian thistle),100 g/ha
same,Percent inhibition AMARE,"AMARE (redroot pigweed); PPI application, 30 g/ha",100%
same,Percent inhibition AMARE,"AMARE (redroot pigweed); PPI application, 100 g/ha",95%
same,Percent inhibition AMARE,"AMARE (redroot pigweed); PPI application, 300 g/ha",100%
same,Percent inhibition AMARE,"AMARE (redroot pigweed); PPI application, 900 g/ha",100%
same,Percent inhibition ECHCG,"ECHCG (barnyardgrass); PPI application, 30 g/ha",40%
same,Percent inhibition ECHCG,"ECHCG (barnyardgrass); PPI application, 100 g/ha",80%
same,Percent inhibition ECHCG,"ECHCG (barnyardgrass); PPI application, 300 g/ha",100%
same,Percent inhibition ECHCG,"ECHCG (barnyardgrass); PPI application, 900 g/ha",100%
same,Percent inhibition PANDI,PANDI (fall panicum); 30 g/ha,100%
same,Percent inhibition PANDI,PANDI (fall panicum); 100 g/ha,100%
same,Percent inhibition PANDI,PANDI (fall panicum); 300 g/ha,100%
same,Percent inhibition PANDI,PANDI (fall panicum); 900 g/ha,100%
same,Percent inhibition POLCO,POLCO (wild buckwheat) [2]; 30 g/ha,40%
same,Percent inhibition POLCO,POLCO (wild buckwheat) [2]; 100 g/ha,40%
same,Percent inhibition POLCO,POLCO (wild buckwheat) [2]; 300 g/ha,65%
same,Percent inhibition POLCO,POLCO (wild buckwheat) [2]; 900 g/ha,100%
same,Percent inhibition ALOMY,ALOMY (blackgrass); 30 g/ha,50%
same,Percent inhibition ALOMY,ALOMY (blackgrass); 100 g/ha,90%
same,Percent inhibition ALOMY,ALOMY (blackgrass); 300 g/ha,100%
same,Percent inhibition ALOMY,ALOMY (blackgrass); 900 g/ha,100%
same,Percent inhibition XANST,XANST (cocklebur); 30 g/ha,0%
same,Percent inhibition XANST,XANST (cocklebur); 100 g/ha,0%
same,Percent inhibition XANST,XANST (cocklebur); 300 g/ha,0%
same,Percent inhibition XANST,XANST (cocklebur); 900 g/ha,0%
same,Percent inhibition TRZAW,wheat (TRZAW); 30 g/ha,0%
same,Percent inhibition TRZAW,wheat (TRZAW); 100 g/ha,0%
same,Percent inhibition TRZAW,wheat (TRZAW); 300 g/ha,30%
same,Percent inhibition TRZAW,wheat (TRZAW); 900 g/ha,30%
same,Percent inhibition BRSNS,oilseed rape (BRSNS); 30 g/ha,0%
same,Percent inhibition BRSNS,oilseed rape (BRSNS); 100 g/ha,80%
same,Percent inhibition BRSNS,oilseed rape (BRSNS); 300 g/ha,100%
same,Percent inhibition BRSNS,oilseed rape (BRSNS); 900 g/ha,100%
"CCN(CC)C(=O)n1cnc(S(=O)(=O)C(F)F)n1 [Example 15, 1-(N,N-diethylcarbamoyl)-3-(difluoromethylsulfonyl)-1,2,4-triazole]",inhibition at 10 g/ha,"AMARE (redroot pigweed); Amaranthus retroflexus, PPI application, 10 g/ha, read-out: Percent inhibition AMARE",20%
same,inhibition at 30 g/ha,"AMARE (redroot pigweed); Amaranthus retroflexus, PPI application, 30 g/ha, read-out: Percent inhibition AMARE",100%
same,inhibition at 100 g/ha,"AMARE (redroot pigweed); Amaranthus retroflexus, PPI application, 100 g/ha, read-out: Percent inhibition AMARE",80%
same,inhibition at 300 g/ha,"AMARE (redroot pigweed); Amaranthus retroflexus, PPI application, 300 g/ha, read-out: Percent inhibition AMARE",100%
same,inhibition at 900 g/ha,"AMARE (redroot pigweed); Amaranthus retroflexus, PPI application, 900 g/ha, read-out: Percent inhibition AMARE",100%
same,PPI activity (GR80) AMARE,"AMARE (redroot pigweed); pre-plant incorporated, GR80 = lowest tested rate with 80% or greater inhibition, approx. 14 days after treating, 30/21° C.",100 g/ha
same,inhibition at 10 g/ha,"ECHCG (barnyardgrass); Echinochloa crus-galli, PPI application, 10 g/ha, read-out: Percent inhibition ECHCG",10%
same,inhibition at 30 g/ha,"ECHCG (barnyardgrass); Echinochloa crus-galli, PPI application, 30 g/ha, read-out: Percent inhibition ECHCG",50%
same,inhibition at 100 g/ha,"ECHCG (barnyardgrass); Echinochloa crus-galli, PPI application, 100 g/ha, read-out: Percent inhibition ECHCG",90%
same,inhibition at 300 g/ha,"ECHCG (barnyardgrass); Echinochloa crus-galli, PPI application, 300 g/ha, read-out: Percent inhibition ECHCG",100%
same,inhibition at 900 g/ha,"ECHCG (barnyardgrass); Echinochloa crus-galli, PPI application, 900 g/ha, read-out: Percent inhibition ECHCG",90%
same,"PPI activity GR80, ECHCG",ECHCG (barnyardgrass); [4],100 g/ha
same,"PPI activity GR80, PANDI",PANDI (fall panicum); [4],100 g/ha
same,"PPI activity GR80, POLCO",POLCO (wild buckwheat) [2]; [4],300 g/ha
same,"PPI activity GR80, VERPE",[3],300 g/ha
same,"PPI activity GR80, ALOMY",ALOMY (blackgrass); [4],100 g/ha
same,inhibition at 10 g/ha,"XANST (cocklebur); Xanthium strumarium, 10 g/ha, read-out: Percent inhibition XANST",0%
same,inhibition at 30 g/ha,"XANST (cocklebur); Xanthium strumarium, 30 g/ha, read-out: Percent inhibition XANST",0%
same,inhibition at 100 g/ha,"XANST (cocklebur); Xanthium strumarium, 100 g/ha, read-out: Percent inhibition XANST",0%
same,inhibition at 300 g/ha,"XANST (cocklebur); Xanthium strumarium, 300 g/ha, read-out: Percent inhibition XANST",0%
